The text below walks through data of patent publication US8415334B2, “Method of combating infection” (Morvus Technology Ltd., priority 2005, dated 2013).

One data set relates to L. donovani HU3. Kind of data set: In vivo activity against L. donovani HU3 in mice (liver parasite load, LDU). The arrangement: species or system Leishmania donovani. The note with it: for ED50: Leishmania donovani. On the procedure: (§1) The infection and treatment of the animals was performed as described by Croft and Yardley and references there in (Croft & Yardley (1999) Animal models of visceral leishmaniasis. In Handbook of Animal Models of Infection, Zak, O. (ed) pp 783-787, Academic Press, London). […] The liver was removed from freshly sacrificed animals and weighed. Smears were then prepared from the livers on microscope slides and fixed with methanol and stained with Giemsa stain. The number of parasites per 500 liver cells was determined microscopically for each experimental animal. This figure is multiplied by total liver weight (mg) and this figure (the Leishman-Donovan unit (LDU)) is used as the basis for calculating the difference in parasite load between treated and untreated animals (Croft & Yardley, 1999 supra).
(§2) Stibogluconate at its MTD (15 mg/kg×5 SC) was used as the control compound for these experiments.

Data set [1] has as its system T cruzi. Kind of data set: In vivo activity against T. cruzi in BALB/c mice (blood parasites, survival). The arrangement: species or system Trypanosoma cruzi. The following applies: for # of type of field (blood parasites per fields): individual mice.
The subject of a further data set is T. b. brucei. The data set can be described thus: Integrated in vitro screening, T. b. brucei. In kind it is cell-based. The note with it: Trypanosoma brucei, read-out: T. b. brucei, IC50.
For a further data set, the system named is T. cruzi (tulahuen CL2). The data set can be described thus: microbe, parasite or virus in culture. The note with it: Trypanosoma cruzi, L6, read-out: T. cruzi (tulahuen CL2) IC50.
Another data set has as its system T. colubriformis. Kind of data set: Integrated in vitro screening, T. colubriformis. In kind it is cell-based. The following applies: for IC50: Trichostrongylus colubriformis, read-out: T. colubriformis, IC50.
Another data set relates to P. falciparum (Ghana). The data set can be described thus: Integrated in vitro screening, P. falciparum (Ghana). In kind it is cell-based. The note with it: Plasmodium falciparum; for IC50: read-out: P. falciparum (Ghana), IC50.
Data set [2] concerns T cruzi. Kind of data set: In vivo activity against T. cruzi in BALB/c mice (blood parasites, survival). The following applies: for # of type of field (blood parasites per fields): 0.3 mg/kg i.p. x5, individual mice. Also noted: species or system Trypanosoma cruzi. On the procedure:
At a dose of 0.3 mg/kg (IP×5, daily) all the mice survived for the 50 days before the experiment was terminated.

A short description of data set [3]: Cytotoxicity assays against a range of human cell lines. The following applies: range of human cell lines (not named). The class given is cell-based.
The conditions of data set [4]: mouse, in vivo. The procedure:
as §1, §2

Another data set deals with L. infantum. The data set can be described thus: In vitro screening, Leishmania in mouse peritoneal macrophages. In kind it is cell-based. The following applies: Peritoneal macrophage.

“And” between values parts separate entries of the source, which are not always exact repeats. Equal entries are not always repeated. Where two headings read alike, the source gives them in different places. Bounds are passed on as bounds.

Procedure for L. infantum: One strain of Leishmania spp. (Leishmania donovani MHOM/ET/67/L82, also known as LV9,HU3) was used. The strain is maintained in the Syrian Hamster (Mesocricetus auratus). Amastigotes were collected from the spleen of an infected hamster and spleen parasite burden was assessed using the Stauber technique.
Primary peritoneal mouse (CD1) macrophages were collected 1 or 2 days after a macrophage production stimulation with an i.p. injection of 2 ml 2% soluble starch. All cultures and assays were conducted at 37° C. under an atmosphere of 5% CO2.
The stock was pre-diluted to 60 μg/ml in RPMI 1640+10% heat inactivated fetal calf serum. Assays were performed in sterile 16-well tissue culture slides, each well containing 50 μl of the compound dilutions together with 100 μl of macrophage/parasite inoculum (4×10^5 macrophages/ml and 4×10^6 parasites/ml). The inoculum was prepared in RPMI-1640 medium, supplemented with 10% heat inactivated fetal calf serum. […] After 5 days of incubation, parasite growth was microscopically assessed after staining the cells with a 10% Giemsa solution. The level of infection/well was evaluated by counting the number of infected macrophages per 100 macrophages. The results expressed as % reduction in parasite burden compared to control wells, were transferred into a graphic programme (EXCEL), sigmoidal inhibitions curves determined and IC50 values calculated. […]
Procedure for T. cruzi (tulahuen CL2): The Trypanosoma cruzi (MHOM/CL/00/Tulahuen) transfected with β-galactosidase (Lac Z) gene, was used (Buckner et al (1996) Antimicrobial Agents and Chemotherapy 40(11), 2592-2597. The strain was maintained on an L-6 (rat skeletal myoblast cell line obtained from European Collection of Animal Cell Cultures (ECACC, Salisbury, UK)) cell-layer in RPMI 1640 w/o phenol red medium supplemented with 10% heat inactivated fetal calf serum. All cultures and assays were conducted at 37° C. under an atmosphere of 5% CO2 in air.
For the assays, the compound was further diluted to the appropriate concentration using complete medium.
Assays were performed in sterile 96-well microliter plates, each well containing 100 μl medium with 2×10^3 L-6 cells. After 24 hours 50 μl of a trypanosome suspension containing 5×10^3 trypomastigote bloodstream forms from culture was added to the wells. 48 hours later the medium was removed from the wells and replaced by 100 μl fresh medium with or without a serial drug dilution. […] Nifurtimox was used as the reference drug.
The compounds were tested in triplicate at 4 concentrations (30-10-3-1 μg/ml). Nifurtimox was included as the reference drug.
The same protocol was used and the IC50s determined using an extended dose range adjusted as appropriate.

`O.O.O.O.O.O.O.O.O.O=C([O-])[C@@H]1[O][Sb]2([O-])([O][Sb]34([OH])[O][C@H]([C@H](O)CO)[C@H]([O]3)[C@H](C(=O)[O-])[O]4)[O][C@H]([C@H](O)CO)[C@@H]1[O]2.[Na+].[Na+].[Na+]` [Stibogluconate, sodium stibogluconate]: the “effect on parasite counts” value in the data set with L. donovani HU3 (SCID mouse model, MTD 15 mg/kg×5 SC) was “little effect”.
`O=C(Cn1ccnc1[N+](=O)[O-])NCc1ccccc1` [benznidazole]: the “parasites in the blood, compared with tretazicar 3.0 mg/kg” value in the data set with T cruzi [1] (45 mg/kg (p.o.×5 daily)) was “equivalent effect”. Moreover, the “# of type of field (blood parasites per fields)” value with T cruzi [1] (45 mg/kg p.o. x5, day 6 post infection) is 0/20 and 3/20 (2×) and 4/20 and 1/20; with T cruzi [1] (45 mg/kg p.o. x5, day 13 post infection), 0/10.
As a reminder, the IC50 is the midpoint of a concentration-inhibition curve. Regarding `Cc1ccc(C(=O)Nc2ccc(S(=O)(=O)O)c3cc(S(=O)(=O)O)cc(S(=O)(=O)O)c23)cc1NC(=O)c1cccc(NC(=O)Nc2cccc(C(=O)Nc3cc(C(=O)Nc4ccc(S(=O)(=O)O)c5cc(S(=O)(=O)O)cc(S(=O)(=O)O)c45)ccc3C)c2)c1` [Suramin], the IC50 in the data set on T. b. brucei is 45 nM.
For `CC1CS(=O)(=O)CCN1/N=C/c1ccc([N+](=O)[O-])o1` (centres unmarked) [Nifurtimox], the IC50 with T. cruzi (tulahuen CL2) came to 450 nM.
In the case of `CCCSc1ccc2nc(NC(=O)OC)[nH]c2c1` [Albendazole], the IC50 with T. colubriformis is 2 nM.
Turning to `CCN(CC)CCCC(C)Nc1ccnc2cc(Cl)ccc12` (centres unmarked) [Chloroquine], in the data set on P. falciparum (Ghana), the IC50 turned out to be 18 nM.
The term ED50 denotes the dose that gives a 50% effect, or the effect in half of the subjects. As for `NC(=O)c1cc(N2CC2)c([N+](=O)[O-])cc1[N+](=O)[O-]` [Tretazicar, 5-(aziridin-1-yl)-2,4-dinitrobenzamide], the “activity against tested strains” value in the data set with P. falciparum (Ghana) (in words) was “No activity”; in the data set with T. colubriformis (T. colubriformis, in words) it was “No activity”. The IC50 in the data set with P. falciparum (Ghana) (in vitro) was over 32000 nM; in the data set with T. colubriformis (in vitro) it was over 32000 nM; with T. cruzi (tulahuen CL2), 3 nM; in data set [3], over 50000 nM; in the data set on L. infantum, 80 nM; in the data set with T. b. brucei (in vitro), 5000 nM. Further, the “# of type of field (blood parasites per fields)” value in the data set with T cruzi [1] (1 mg/kg i.p. x5, day 6 post infection) is 0/20 (3×) and 1/20 (2×); in the data set on T cruzi [1] (1 mg/kg i.p. x5, day 13 post infection), 0/10 (2×) and 3/10; with T cruzi [1] (3 mg/kg i.p. x5, day 6 post infection), 5/20 and 12/20 and 4/20 and 1/20 (2×); with T cruzi [1] (3 mg/kg i.p. x5, day 13 post infection), 0/10; with T cruzi [1] (10 mg/kg i.p. x5, day 6 post infection) it was 0/20 (3×) and 1/20 and 2/20; in the data set on T cruzi [1] (10 mg/kg i.p. x5, day 13 post infection) it was 0/10. Besides, the “# of type of field (blood parasites per fields)” value in the data set on T cruzi [2] (day 6 post infection) is 2/20 and 0/20 (4×); with T cruzi [2] (day 13 post infection) it was 16/5 and 2/5 (2×) and 7/5 and 6/5. The “parasites in the blood” value in the data set with T cruzi [1] (3.0 mg/kg (IP×5, daily)) is listed as “cleared all the parasites from the blood”; in the data set on T cruzi [2] (0.3 mg/kg (IP×5, daily), at 13 days), “parasites could still be detected in the blood”. Besides, the “survival of infected mice” value with T cruzi [2] (0.3 mg/kg (IP×5, daily), BALB/c mice, experiment terminated at 50 days) was at least 50 days. Besides, the “drug related toxicity, as measured by body weight loss” value in [4] is recorded as “No drug related toxicity”. Further, in [4] (5 days), the “dose at which significant toxicity was observed” value is given as 10 mg/kg×5. For the same compound, the ED90 with L. donovani HU3 (BALB/c mice, IP × 5 Daily) is 1.41 mg/kg; with L. donovani HU3 (BALB/c mice, IV × 3 Daily), 1.15 mg/kg; in the data set on L. donovani HU3 (SCID mice, IV × 5 Daily), 0.35 mg/kg. Moreover, the ED50 in the data set on L. donovani HU3 (ip, BALB/c mice, IP × 5 Daily) turned out to be 0.23 mg/kg; in the data set on L. donovani HU3 (iv, BALB/c mice, IV × 3 Daily), 0.19 mg/kg; in the data set with L. donovani HU3 (iv, SCID mice, IV × 5 Daily), 0.18 mg/kg.
